In the assay the target is Short transient receptor potential channel 6 (Mus musculus) (UniProt Q61143). The assay is described as follows: TRPC6 inhibitor potency, dose response, cell-based, mouse TRPC6, HEK293, membrane potential (AID 2696). Particulars: TRPC6-expressing HEK293 cells, membrane potential dye fluorescence, acetylcholine-stimulated.

The structures appear in SMILES notation. Several values for one entry are separate records, joined by “and”; a condition that tells them apart may be missing. Equal values may be shown once.

Sequence of Short transient receptor potential channel 6 (Mus musculus) (Q61143 whole entry, looked up): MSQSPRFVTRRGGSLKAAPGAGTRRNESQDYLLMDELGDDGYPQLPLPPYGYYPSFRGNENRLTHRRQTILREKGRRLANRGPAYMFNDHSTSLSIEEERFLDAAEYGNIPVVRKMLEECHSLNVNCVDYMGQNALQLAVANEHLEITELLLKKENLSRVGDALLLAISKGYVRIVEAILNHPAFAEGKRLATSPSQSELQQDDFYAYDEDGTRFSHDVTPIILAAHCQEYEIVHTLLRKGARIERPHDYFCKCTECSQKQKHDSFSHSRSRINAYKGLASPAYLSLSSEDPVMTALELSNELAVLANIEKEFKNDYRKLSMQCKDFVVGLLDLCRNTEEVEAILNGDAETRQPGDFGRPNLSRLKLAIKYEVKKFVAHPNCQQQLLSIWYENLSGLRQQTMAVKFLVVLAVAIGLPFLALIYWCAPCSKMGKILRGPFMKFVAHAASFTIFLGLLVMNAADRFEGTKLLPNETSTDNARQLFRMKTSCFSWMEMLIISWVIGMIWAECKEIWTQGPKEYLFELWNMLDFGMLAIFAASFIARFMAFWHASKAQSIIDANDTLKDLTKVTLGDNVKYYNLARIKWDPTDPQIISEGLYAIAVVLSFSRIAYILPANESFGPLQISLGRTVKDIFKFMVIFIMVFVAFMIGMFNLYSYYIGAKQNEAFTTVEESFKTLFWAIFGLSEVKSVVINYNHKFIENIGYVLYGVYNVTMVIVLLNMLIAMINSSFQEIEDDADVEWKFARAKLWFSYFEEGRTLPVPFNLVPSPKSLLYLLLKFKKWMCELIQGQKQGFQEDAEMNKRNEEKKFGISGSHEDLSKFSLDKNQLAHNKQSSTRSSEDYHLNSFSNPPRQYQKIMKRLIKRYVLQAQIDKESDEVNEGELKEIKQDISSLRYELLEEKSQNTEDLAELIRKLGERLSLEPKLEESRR

`CCCCNC(=O)c1cc2c(=O)n3cccc(C)c3nc2n(Cc2ccncc2)c1=N`: the IC50 (commonly the midpoint of a concentration-inhibition curve) was 44.7 µM. As for `Nc1nc(Nc2cccc(F)c2)nc2ccccc12`, the figure is 39.8 µM; as for `COc1ccc(OC)c2sc(N(CCN(C)C)C(=O)c3ccc4ccccc4c3)nc12`, 70.8 µM; as for `CN(C)CCOC1c2ccccc2CSc2ccccc21` (stereo unspecified), 12.6 µM.

Take `CC[N+](CC)(CC)CCCOC(=O)C(O)(c1ccccc1)C1CCCCC1` (stereo unspecified): the concentration for half-maximal inhibition (IC50) was 0.06 µM. To `O=C(CCCOc1ccc(Cl)cc1Cl)N1CCN(c2ccccn2)CC1` belongs 63.1 µM.

Consider `Clc1ccc2c(N3CCCC3)ccnc2c1`, for which the 50% inhibitory concentration (IC50) is 56.2 µM. As for `CCOC(=O)c1cnc2c(C)cccc2c1NCCCN1CCOCC1`, the figure is 44.7 µM; as for `C[N+](C)(N)CCOC(=O)C(O)(c1ccccc1)C1CCCCC1` (stereo unspecified), 0.32 µM; as for `CN(C)CCCNc1nc(-c2ccccc2)nc2ccccc12`, 79.4 µM. To `CC(/C=N/n1c(-c2n[nH]c3c2CCC3)n[nH]c1=S)=C\c1ccco1` belongs 8.91 µM.

Turning to `COc1ccc2ccccc2c1CNCCc1ccccc1`, the IC50 was 50.1 µM. `C=C(C)c1cccc(C(C)(C)NC(=O)NCCN(CC)CC)c1`: the IC50 is 28.2 µM.

Turning to `N#CC(c1cccc(Cl)c1)c1ccc2c(C(F)(F)F)cc(C(F)(F)F)nc2n1` (stereo unspecified), the IC50 is 31.6 µM. Turning to `COc1ccc(CCC(C)NC2C3CC4CC(C3)CC2C4)cc1` (stereo unspecified), the IC50 was 44.7 µM. For the compound `CCCCCCCCCCCCn1ccc(=N)cc1`, the IC50 is 35.5 µM. As for `CC(C)(C)NCc1cc(Br)ccc1OCc1cccs1`, the figure is 70.8 µM. In the case of `C[N+]1(C)[C@@H]2CC(OC(=O)[C@H](CO)c3ccccc3)C[C@H]1[C@@H]1O[C@@H]12` (stereo partly specified), the IC50 is 0.03 µM. To `Cc1ccc(OCCCCCCN2CCNCC2)cc1` belongs 79.4 µM; to `OC(C#CCN1CCCCC1)(c1ccccc1)c1ccccc1`, 1.12 µM. As for `NCCCn1c(C(=O)c2ccc(Cl)cc2)c2ccc(C(F)(F)F)cc2[n+]1[O-]`, the figure is 44.7 µM; as for `CC[N+](C)(CC)CCC(c1ccccc1)C1CCCCC1` (stereo unspecified), 4.47 µM. To `Cc1ccc(C(O)(CCN2CCCCC2)c2ccccc2)cc1` (stereo unspecified) belongs 19.9 µM; to `CCOC(=O)c1ccc(NC(=S)NCc2ccco2)cc1`, 50.1 µM. In the case of `Fc1ccc([C@@H]2CCNC[C@H]2COc2ccc3c(c2)OCO3)cc1`, the 50% inhibitory concentration (IC50) is 44.7 µM. As for `CCN(CC)CCCOC(=O)C(c1ccccc1)c1ccccc1`, the figure is 3.16 µM; as for `O=[N+]([O-])c1cc([N+](=O)[O-])c2c(=Nc3ccccc3)n(-c3ccccc3)n(O)c2c1`, 50.1 µM. As for `CCOC(=O)C1CCCN(C(=O)c2cc3c(C)nc4ccccc4c3o2)C1` (stereo unspecified), the figure is 50.1 µM.

For the compound `N#Cc1c(-n2cccc2/C=N/O)sc2c1CCCC2`, the 50% inhibitory concentration (IC50) was 39.8 µM. As for `Cc1cccc2sc(N(CCCN(C)C)C(=O)c3ccc(Cl)s3)nc12`, the figure is 70.8 µM; as for `COc1cc(/C=N/Nc2nncc3ccccc23)cc(OC)c1OC`, 44.7 µM. To `CN(C)CCN(C(=O)c1cccs1)c1nc2cc3c(cc2s1)OCCO3` belongs 39.8 µM. To `COc1cc(/C=N/Nc2nc(N3CCCC3)nc(N3CCCC3)n2)ccc1OCc1ccccc1F` belongs 39.8 µM; to `O=C(CSc1c2c(nc3ccc(Cl)cc13)CCCC2)NCCCN1CCOCC1`, 39.8 µM; to `CCOC(=O)c1ccc(NC(=O)CC2COc3ccccc3O2)cc1` (stereo unspecified), 63.1 µM. In the case of `Cc1ccccc1Nc1nc(N)c2ccccc2n1`, the IC50 is 44.7 µM. For the compound `C[N+]1(CCOC(=O)C2(c3ccccc3)CCCC2)CCCCC1`, the IC50 is 15.8 µM. `Cc1cccc(C(=O)NNC2=C(C(=O)C(F)(F)F)CCC2)c1O`: the half-inhibitory concentration (IC50) is 44.7 µM. Turning to `CCC(CO)(C(=O)OC1CC2CCC(C1)N2C)c1ccccc1` (stereo unspecified), the IC50 was 0.09 µM. To `CCN(CC)CCCNc1nc(-n2nc(C)cc2C)nc2sc3c(c12)CC(C)(C)OC3` belongs 22.4 µM. As for `Cc1nc2c(o1)CCc1ccccc1C2N1CCN(C)CC1` (stereo unspecified), the figure is 0.79 µM and 3.16 µM; as for `C[N+](C)(C)C/C=C1/COCO1`, 11.2 µM. To `COc1ccc2nc(C)cc(Nc3ccc(N4CCN(C)CC4)cc3)c2c1` belongs 79.4 µM; to `COC(=O)c1ccc(NC(=O)N2CCCC(C(=O)c3ccccc3OC)C2)cc1` (stereo unspecified), 79.4 µM. On to `CCCC(CCC)C(=O)OC[N+](C)(C)CCOC(=O)C(O)(c1ccccc1)C1CCCC1` (stereo unspecified), for which the IC50 was 1.78 µM. To `C#CC[N+]1(C)[C@@H]2CC[C@H]1CC(OC(=O)C(CO)c1ccccc1)C2` (stereo partly specified) belongs 0.28 µM.
